# Measurements published in patent US20220249525A1, “Fatty Acid Compounds for Prevention and Treatment of Neurodegenerative Disorders” (T OMEGA AS, priority 2019, published 2022).
# How the values were obtained:
# [1] = 4 week high-fat diet study, body weight, adipose tissue, plasma glucose and cholesterol; assay type: in vivo, C57BL/6 mice; settings: mice, N-TTA 750 mg/kg or triple-N-TTA 350 mg/kg body weight, 4 weeks
# Method: This animal study was conducted according to the Guidelines for the Care and Use of Experimental Animals, and the protocol was approved by the Norwegian Food Authorities. 7 to 8-weeks old male C57BL/6 mice, were obtained from Janvier Labs. After one week of acclimatization, they were divided into 3 groups of 7 animals. One group was fed a control high-fat (25 w/v) diet while the two remaining groups were fed a high-fat diet supplemented with either N-TTA (750 mg/kg body weight) or triple-N-TTA (350 mg/kg body weight). After 4 weeks of feeding, the mice were anaesthetized with Isofluorane (Forane, Abbot Laboratories Ltd, Illinois, USA) inhalation under fasting conditions, and blood and liver samples were collected. […]
# Glucose and lipids in plasma was measured on the Hitachi 917 system (Roche Diagnostics, GmbH, Mannheim, Germany) using kits from Roche Diagnostics or DiaSys.
# [2] = system: MOLM-13 human acute leukemia cells; test: WST-1 viability of MOLM-13 cells; assay type: cell-based; settings: for Abs450 nm (WST-1 viability): complexed to BSA
# Method: MOLM-13 suspension cells were diluted and added to 96-well plates (15.000 cells/well).
# The modified fatty acids TTA, tr-TTA, TDG (TGH) and tr-TDG (tr-TGH) were complexed to bovine serum albumin (BSA), and 10-fold dilutions of the fatty acids or BSA control were added to the wells in duplicate. Two plates were run in parallel, and WST-1 was added to the cells after 48 (plate 1) and 72 hours (plate 2). Absorbance at 450 nm measured to assess viability of the cells.
structure (smiles),measurement,setting,value
"CCCCCCCCCCCCCCNCC(=O)O [N-TTA, N-tetradecylglycine]",LDL cholesterol (plasma),[1],reduced
same,body weight gain vs high-fat control diet,[1],significantly lower
same,cholesterol esters (plasma),[1],reduced
same,epididymal white adipose tissue depot,[1],reduced in size
same,free cholesterol (plasma),[1],reduced
same,perirenal white adipose tissue depot,[1],reduced in size
same,total cholesterol (plasma),[1],reduced
same,blood glucose vs high-fat control diet,[1]; fasting,significantly lower
same,Abs450 nm (WST-1 viability),"[2]; 48 hours, 0.0625 mM",0.9307
same,Abs450 nm (WST-1 viability),"[2]; 48 hours, 0.125 mM",0.4765
same,Abs450 nm (WST-1 viability),"[2]; 48 hours, 0.25 mM",0.5423
same,Abs450 nm (WST-1 viability),"[2]; 48 hours, 0.5 mM",0.3207
same,Abs450 nm (WST-1 viability),"[2]; 48 hours, 1 mM",0.257
same,Abs450 nm (WST-1 viability),"[2]; 48 hours, 2 mM",0.3163
same,Abs450 nm (WST-1 viability),"[2]; 72 hours, 0.03125 mM",0.4491
same,Abs450 nm (WST-1 viability),"[2]; 72 hours, 0.0625 mM",0.8073
same,Abs450 nm (WST-1 viability),"[2]; 72 hours, 0.125 mM",0.4813
same,Abs450 nm (WST-1 viability),"[2]; 72 hours, 0.25 mM",0.203
same,Abs450 nm (WST-1 viability),"[2]; 72 hours, 0.5 mM",0.175
same,Abs450 nm (WST-1 viability),"[2]; 72 hours, 1 mM",0.1893
same,Abs450 nm (WST-1 viability),"[2]; 72 hours, 2 mM",0.2359
same,toxicity to leukemic cells,"[2]; MOLM-13, compared with TTA and tr-TTA",toxic to leukemic cells at a lower concentration than TTA and tr-TTA
